# In patent US9738648B2, “Pyridines, pyrimidines, and pyrazines, as BTK inhibitors and uses thereof” (Merck Patent GmbH, priority 2013, dated 2017):
# Biological target: T1, full-length human BTK (Homo sapiens, UniProt Q06187)
# T1 construct: 2.5× stocks of full-length human BTK (08-080) from CarnaBio USA, Inc; purchased CarnaBio USA, Inc., Natick, Mass; 08-080
# Test: BTK IC50 Enzyme Assay (Assay A), microfluidic off-chip mobility shift kinase assay
# Type: biochemical
# Settings: kinKDR peptide substrate, 90 min at 27° C.
# Protocol: BTK IC50 Enzyme Assay (Assay A)
# The following describes a microfluidic, off-chip mobility shift kinase assay used to measure inherent potency of compounds against BTK enzyme.
# 2.5× stocks of full-length human BTK (08-080) from CarnaBio USA, Inc., Natick, Mass., 1.6×ATP and appropriate kinKDR peptide substrate (FITC-AHA-EEPLYWSFPAKKK10 NH2) were prepared in kinase reaction buffer consisting of 25 mM MgCl2, 0.015% Brij-35 (30%), 100 mM Hepes, pH 7.5, and 10 mM DTT.
# 5 uL of enzyme buffer and 7.5 uL of ATP/kinKDR peptide substrate mix were added to Matrix (#115304) 384-well, sterile, polypropylene plates (Thermo Fisher Scientific, 15 Hudson, N.H.) with 125 nL of serially diluted compounds prepared in 100% DMSO, and incubated for 90 min. at 27° C. Following the incubation period, reactions were stopped by adding 60 uL stop buffer consisting of 100 mM Hepes, pH 7.5, 0.015% Brij-35 (30%), 0.277% Coating Reagent #3 (Caliper Life Sciences, Mountain View, Calif.), 5% DMSO. Stopped reactions were monitored at −2 PSI, −3000 V/−700 V in a LabChip 3000 plate 20 reader from Caliper Life Sciences, a PerkinElmer Company (Hopkinton, Mass.), and the activity was measured by off-chip mobility shift assay measuring the charge/mass difference between substrate and product resulting from peptide phosphorilation. IC50 and efficacy were determined by plotting log [Inhibitor] vs. % Activity in GeneData Screener (Basel, Switzerland).
# T1 sequence (Q06187 whole entry): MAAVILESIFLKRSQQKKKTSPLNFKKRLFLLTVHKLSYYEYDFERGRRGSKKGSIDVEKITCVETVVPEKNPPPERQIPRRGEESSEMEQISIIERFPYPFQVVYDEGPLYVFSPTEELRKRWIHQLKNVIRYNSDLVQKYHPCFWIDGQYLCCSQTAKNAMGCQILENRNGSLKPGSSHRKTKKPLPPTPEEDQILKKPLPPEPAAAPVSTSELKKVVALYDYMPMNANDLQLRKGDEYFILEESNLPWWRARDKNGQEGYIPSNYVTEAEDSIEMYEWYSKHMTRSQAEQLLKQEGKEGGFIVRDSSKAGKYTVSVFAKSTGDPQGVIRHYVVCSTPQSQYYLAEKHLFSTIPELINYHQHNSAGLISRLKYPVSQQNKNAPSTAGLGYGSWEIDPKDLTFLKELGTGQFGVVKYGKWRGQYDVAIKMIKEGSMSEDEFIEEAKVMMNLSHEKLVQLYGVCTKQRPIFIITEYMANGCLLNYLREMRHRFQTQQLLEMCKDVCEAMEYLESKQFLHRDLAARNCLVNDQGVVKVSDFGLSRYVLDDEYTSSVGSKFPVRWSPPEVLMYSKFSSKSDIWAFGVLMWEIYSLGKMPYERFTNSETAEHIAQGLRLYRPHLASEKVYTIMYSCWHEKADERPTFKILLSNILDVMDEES
row,IC50 [nM],Structure (SMILES)
1,< 100,"CN(C)C/C=C/C(=O)N1CCC(n2ccc3ncnc(Oc4ccc(Oc5ccccc5)cc4)c32)CC1 [Compound 1, (E)-4-(dimethylamino)-1-(4-(4-(4-phenoxyphenoxy)-5H-pyrrolo[3,2-d]pyrimidin-5-yl)piperidin-1-yl)but-2-en-1-one]"
2,< 100,"C=CC(=O)N1CCC(n2ccc3ncnc(Oc4ccc(Oc5ccccc5)cc4)c32)CC1 [Compound 2, 1-(4-(4-(4-phenoxyphenoxy)-5H-pyrrolo[3,2-d]pyrimidin-5-yl)piperidin-1-yl)prop-2-en-1-one]"
3,< 100,"C=CC(=O)N1CC(n2ccc3ncc(-c4ccc(Oc5ccccc5)cc4)cc32)C1 [Compound 4, 1-(3-(6-(4-phenoxyphenyl)-1H-pyrrolo[3,2-b]pyridin-1-yl)azetidin-1-yl)prop-2-en-1-one]"
4,< 100,"C=CC(=O)N1CC[C@H](n2ccc3ncnc(Oc4ccc(Oc5ccccc5)cc4)c32)C1 [Compound 5, (S)-1-(3-(4-(4-phenoxyphenoxy)-5H-pyrrolo[3,2-d]pyrimidin-5-yl)pyrrolidin-1-yl)prop-2-en-1-one]"
5,< 100,"C=CC(=O)N1CC(n2ccc3ncnc(Nc4ccc(Oc5ccccc5)cc4)c32)C1 [Compound 6, 1-(3-(4-((4-phenoxyphenyl)amino)-5H-pyrrolo[3,2-d]pyrimidin-5-yl)azetidin-1-yl)prop-2-en-1-one]"
6,< 100,"C=CC(=O)N1CC(n2ccc3ncc(-c4ccc(Oc5ccccc5)cc4)nc32)C1 [Compound 7, 1-(3-(3-(4-phenoxyphenyl)-5H-pyrrolo[2,3-b]pyrazin-5-yl)azetidin-1-yl)prop-2-en-1-one]"
7,< 100,"C=CC(=O)N[C@H]1C[C@H](n2ccc3ncnc(Oc4ccc(Oc5ccccc5)cc4)c32)C1 [Compound 8, N-(trans-3-(4-(4-phenoxyphenoxy)-5H-pyrrolo[3,2-d]pyrimidin-5-yl)cyclobutyl)acrylamide]"
8,< 100,"C=CC(=O)N1CC[C@@H]1Cn1ccc2ncnc(Oc3ccc(Oc4ccccc4)cc3)c21 [Compound 9, (R)-1-(2-((4-(4-phenoxyphenoxy)-5H-pyrrolo[3,2-d]pyrimidin-5-yl)methyl)azetidin-1-yl)prop-2-en-1-one]"
9,< 100,"C=CC(=O)N[C@H]1C[C@@H](n2ncc3ncnc(Oc4ccc(Oc5ccccc5)cc4)c32)C1 [Compound 11, N-((1s,3s)-3-(7-(4-phenoxyphenoxy)-1H-pyrazolo[4,3-d]pyrimidin-1-yl)cyclobutyl)acrylamide]"
10,< 100,"C=CC(=O)N1CCC(n2ncc3ncnc(Oc4ccc(Oc5ccccc5)cc4)c32)CC1 [Compound 12, 1-(4-(7-(4-phenoxyphenoxy)-1H-pyrazolo[4,3-d]pyrimidin-1-yl)piperidin-1-yl)prop-2-en-1-one]"
11,< 100,"CN(C)C/C=C/C(=O)N1CCC(n2ncc3ncnc(Oc4ccc(Oc5ccccc5)cc4)c32)CC1 [Compound 14, (E)-4-(dimethylamino)-1-(4-(7-(4-phenoxyphenoxy)-1H-pyrazolo[4,3-d]pyrimidin-1-yl)piperidin-1-yl)but-2-en-1-one]"
12,< 100,"C=CC(=O)N1CCCC(Cn2ccc3ncnc(Oc4ccc(Oc5ccccc5)cc4)c32)C1 (stereo not shown) [Compound 15, 1-(3-((4-(4-phenoxyphenoxy)-5H-pyrrolo[3,2-d]pyrimidin-5-yl)methyl)piperidin-1-yl)prop-2-en-1-one]"
13,< 100,"C=CC(=O)N1CC(n2ccc3ncnc(Oc4ccc(OCc5ccccc5)cc4)c32)C1 [Compound 16, 1-(3-(4-(4-(benzyloxy)phenoxy)-5H-pyrrolo[3,2-d]pyrimidin-5-yl)azetidin-1-yl)prop-2-en-1-one]"
14,< 100,"C=CC(=O)N1CC(n2ccc3ncnc(Oc4ccc(Cc5ccccc5)cc4)c32)C1 [Compound 17, 1-(3-(4-(4-benzylphenoxy)-5H-pyrrolo[3,2-d]pyrimidin-5-yl)azetidin-1-yl)prop-2-en-1-one]"
15,< 100,"CN(C)C/C=C/C(=O)N1CC[C@H](n2ccc3ncnc(Oc4ccc(Oc5ccccc5)cc4)c32)C1 [Compound 18, (S,E)-4-(dimethylamino)-1-(3-(4-(4-phenoxyphenoxy)-5H-pyrrolo[3,2-d]pyrimidin-5-yl)pyrrolidin-1-yl)but-2-en-1-one]"
16,< 100,"CN(C)C/C=C/C(=O)N1CC(n2ccc3ncnc(Oc4ccc(Oc5ccccc5)cc4)c32)C1 [Compound 19, (E)-4-(dimethylamino)-1-(3-(4-(4-phenoxyphenoxy)-5H-pyrrolo[3,2-d]pyrimidin-5-yl)azetidin-1-yl)but-2-en-1-one]"

row,IC50 [nM],Structure (SMILES)
1,< 100,"C=CC(=O)N1CC(Cn2ccc3ncnc(Oc4ccc(Oc5ccccc5)cc4)c32)C1 [Compound 20, 1-(3-((4-(4-phenoxyphenoxy)-5H-pyrrolo[3,2-d]pyrimidin-5-yl)methyl)azetidin-1-yl)prop-2-en-1-one]"
2,< 100,"C=CC(=O)N[C@H]1C[C@H](n2ncc3ncnc(Oc4ccc(Oc5ccccc5)cc4)c32)C1 [Compound 21, N-((1r,3r)-3-(7-(4-phenoxyphenoxy)-1H-pyrazolo[4,3-d]pyrimidin-1-yl)cyclobutyl)acrylamide]"
3,< 100,"C=CC(=O)N1CC(n2ccc3ncnc(Oc4ccc(Nc5ccccc5)cc4)c32)C1 [Compound 22, 1-(3-(4-(4-(phenylamino)phenoxy)-5H-pyrrolo[3,2-d]pyrimidin-5-yl)azetidin-1-yl)prop-2-en-1-one]"
4,< 100,"C=CC(=O)N1CC(n2ncc3ncc(-c4ccc(Oc5ccccc5)cc4)nc32)C1 [Compound 23, 1-(3-(6-(4-phenoxyphenyl)-1H-pyrazolo[3,4-b]pyrazin-1-yl)azetidin-1-yl)prop-2-en-1-one]"
5,< 100,"CN(C)C/C=C/C(=O)N1CC(n2ccc3ncc(-c4ccc(Oc5ccccc5)cc4)nc32)C1 [Compound 24, (E)-4-(dimethylamino)-1-(3-(3-(4-phenoxyphenyl)-5H-pyrrolo[2,3-b]pyrazin-5-yl)azetidin-1-yl)but-2-en-1-one]"
6,< 100,"C=CC(=O)N1CC[C@H]1Cn1ccc2ncnc(Oc3ccc(Oc4ccccc4)cc3)c21 [Compound 25, (S)-1-(2-((4-(4-phenoxyphenoxy)-5H-pyrrolo[3,2-d]pyrimidin-5-yl)methyl)azetidin-1-yl)prop-2-en-1-one]"
7,< 100,"C=CC(=O)NCCCn1ccc2ncnc(Oc3ccc(Oc4ccccc4)cc3)c21 [Compound 26, N-(3-(4-(4-phenoxyphenoxy)-5H-pyrrolo[3,2-d]pyrimidin-5-yl)propyl)acrylamide]"
8,< 100,"C=CC(=O)N1CC(n2ccc3ncnc(Oc4ccc(Oc5ccc(F)cc5)cc4)c32)C1 [Compound 27, 1-(3-(4-(4-(4-fluorophenoxy)phenoxy)-5H-pyrrolo[3,2-d]pyrimidin-5-yl)azetidin-1-yl)prop-2-en-1-one]"
9,< 100,"C=CC(=O)N1CC2(CC(n3ccc4ncnc(Oc5ccc(Oc6ccccc6)cc5)c43)C2)C1 [Compound 28, 1-(6-(4-(4-phenoxyphenoxy)-5H-pyrrolo[3,2-d]pyrimidin-5-yl)-2-azaspiro[3.3]heptan-2-yl)prop-2-en-1-one]"
10,< 100,"C=CC(=O)N1CCC(Cn2ccc3ncnc(Oc4ccc(Oc5ccccc5)cc4)c32)C1 (stereo not shown) [Compound 29, 1-(3-((4-(4-phenoxyphenoxy)-5H-pyrrolo[3,2-d]pyrimidin-5-yl)methyl)pyrrolidin-1-yl)prop-2-en-1-one]"
11,< 100,"CN(C)C/C=C/C(=O)N1CCCC(Cn2ccc3ncnc(Oc4ccc(Oc5ccccc5)cc4)c32)C1 (stereo not shown) [Compound 30, (E)-4-(dimethylamino)-1-(3-((4-(4-phenoxyphenoxy)-5H-pyrrolo[3,2-d]pyrimidin-5-yl)methyl)piperidin-1-yl)but-2-en-1-one]"
12,100 to 1000,"CC1=CC(C)=[N+]2C1=Cc1ccc(CCC(=O)NCCN3CCN(C/C=C/C(=O)N4CC(n5ccc6ncnc(Oc7ccc(Oc8ccccc8)cc7)c65)C4)CC3)n1[B-]2(F)F [Compound 32, (E)-5,5-difluoro-1,3-dimethyl-7-(3-oxo-3-((2-(4-(4-oxo-4-(3-(4-(4-phenoxyphenoxy)-5H-pyrrolo[3,2-d]pyrimidin-5-yl)azetidin-1-yl)but-2-en-1-yl)piperazin-1-yl)ethyl)amino)propyl)-5H-dipyrrolo[1,2-c:2′,1′-f][1,3,2]diazaborinin-4-ium-5-uide]"
13,100 to 1000,"CN(C)C/C=C/C(=O)N[C@H]1C[C@H](n2ccc3ncnc(Oc4ccc(Oc5ccccc5)cc4)c32)C1 [Compound 33, (E)-4-(dimethylamino)-N-(trans-3-(4-(4-phenoxyphenoxy)-5H-pyrrolo[3,2-d]pyrimidin-5-yl)cyclobutyl)but-2-enamide]"
14,100 to 1000,"C=CC(=O)N1CC[C@@H](n2ccc3ncnc(Oc4ccc(Oc5ccccc5)cc4)c32)C1 [Compound 34, (R)-1-(3-(4-(4-phenoxyphenoxy)-5H-pyrrolo[3,2-d]pyrimidin-5-yl)pyrrolidin-1-yl)prop-2-en-1-one]"
15,100 to 1000,"C=CC(=O)N1CC(n2ccc3ncnc(Oc4ccc(NC(=O)c5ccccc5)cc4)c32)C1 [Compound 35, N-(4-((5-(1-acryloylazetidin-3-yl)-5H-pyrrolo[3,2-d]pyrimidin-4-yl)oxy)phenyl)benzamide]"
